Measured values taken from patent US4562211A, “Pharmaceutically active 2-substituted-1-(omega-aminoalkoxy)benzenes” (Mitsubishi Chemical Industries, Ltd., priority 1976, dated 1985).
Structures can show the parent of a compound that is named as a salt.

Tests used:
[1] = tested on: reserpine (5 mg/kg i.p.) induced hypothermia; assay: Antireserpine activity in mice (antagonism of reserpine induced hypothermia), relative to Amitriptyline; format: in vivo; settings: Amitriptyline=1
Procedure: The 2-substituted-1-(omega-aminoalkoxy)benzenes and the acid addition salts thereof may be purified by recrystallization employing a suitable solvent such as alcohol-ether.
The compounds were administered intraperitoneally and the activities of the compounds were compared with those of Amitriptyline.

[2] = tested on: electroshock induced tonic extensor; assay: Anticonvulsant activity: antagonism of electroshock induced tonic extensor; format: in vivo; settings: Mus musculus, po; mice; p.o.; dose preventing 50% of response; read-out: Anti-Convulsant Activity ED50
[3] = tested on: neurological deficit as measured by traction test; assay: CNS depressant activity: muscle relaxant action, traction test; format: in vivo; settings: Mus musculus, po, mice
[4] = tested on: spontaneous motor activity; assay: CNS depressant activity: spontaneous motor activity depression (ANIMEX apparatus); format: in vivo; settings: Mus musculus, po, mice
tremorine induced tremor = assay: Central anticholinergic effect: antitremorine effect; format: in vivo; settings: Mus musculus, po, mice
[5] = Acute toxicity in mice, LD50 (Litchfield-Wilcoxon); settings: mouse, in vivo, ip
Procedure: The compounds have been tested in mice for antidepressant, sedative, anticonvulsant and anticholinergic activity. The compounds were administered intraperitoneally and the activities of the compounds were compared with those of Amitriptyline.
LD50 was calculated by Litchfield-Wilcoxon method.

SMILES: CNCCCOc1ccccc1Oc1ccccc1C [compound 12]
- Antireserpine activity, Relative Potency [1]: 1.12

SMILES: CNCCCCOc1ccccc1Cc1ccccc1O [No. 8, 2-(4-methylaminobutoxy)-2'-hydroxydiphenylmethane]
- ED50 [2]: 190 mg/kg
- ED50 [3]: 390 mg/kg
- ED50 [4]: 175 mg/kg
- ED50 (tremorine induced tremor): > 200 mg/kg

SMILES: CN(C)CCC=C1c2ccccc2CCc2ccccc21 [Amitriptyline, reference compound]
- LD50 [5]: 300 mg/kg
- ED50 [2]: 19 mg/kg
- ED50 [3]: 40 mg/kg
- ED50 [4]: 28 mg/kg
- ED50 (tremorine induced tremor): 11 mg/kg

SMILES: CCN(CC)CCCOc1ccccc1Oc1ccccc1C [compound 15]
- Antireserpine activity, Relative Potency [1]: 0.44

SMILES: CNCCCCOc1c(C)cccc1Cc1ccccc1 [No. 1, 2-(4-methylaminobutoxy)-3-methyldiphenylmethane hydrochloride]
- Antireserpine activity, Relative Potency [1]: 0.56
- LD50 [5]: 500 to 700 mg/kg

SMILES: Cc1ccccc1Oc1ccccc1OCCCN(C)C [compound 13]
- Antireserpine activity, Relative Potency [1]: 0.95

SMILES: CNCCCCOc1ccccc1Cc1ccccc1O [compound 8]
- Antireserpine activity, Relative Potency [1]: 1.00
- LD50 [5]: 600 to 700 mg/kg

SMILES: CNCCCCOc1ccccc1Oc1ccccc1C [compound 11]
- Antireserpine activity, Relative Potency [1]: 0.65

SMILES: Cc1cccc(Cc2ccccc2)c1OCCCCN(C)C [No. 2, 2-(4-dimethylaminobutoxy)-3-methyldiphenylmethane]
- Antireserpine activity, Relative Potency [1]: 0.66
- LD50 [5]: 500 to 700 mg/kg

SMILES: COc1ccc(Cc2ccccc2OCCCCN(CCO)CCO)cc1 [compound 6]
- Antireserpine activity, Relative Potency [1]: 0.44

SMILES: CNCCCCOc1ccccc1Cc1ccc(Cl)cc1 [compound 5]
- Antireserpine activity, Relative Potency [1]: 0.44

SMILES: CNCCCCOc1ccccc1Cc1ccc(C)cc1 [compound 4]
- Antireserpine activity, Relative Potency [1]: 0.44

SMILES: CN(C)CCCCOc1ccccc1Cc1ccccc1O [compound 9]
- Antireserpine activity, Relative Potency [1]: 0.77

SMILES: CCOc1ccccc1Oc1ccccc1OCCCCNC [compound 10]
- Antireserpine activity, Relative Potency [1]: 0.90

SMILES: CCNCCCOc1ccccc1Oc1ccccc1C [compound 14]
- Antireserpine activity, Relative Potency [1]: 0.46

SMILES: Cc1ccccc1Oc1ccccc1OCCCN1CCCC1 [compound 16]
- Antireserpine activity, Relative Potency [1]: 0.42

SMILES: Cc1ccc(OCCCCN(C)C)c(Cc2ccccc2)c1 [compound 3]
- Antireserpine activity, Relative Potency [1]: 0.70
- LD50 [5]: 500 to 700 mg/kg

SMILES: CNCCCCOc1ccccc1Cc1ccccc1OC [compound 7]
- Antireserpine activity, Relative Potency [1]: 0.85
- LD50 [5]: 600 mg/kg
